Laboratory results as given in article PMC10279527, “Structural basis of metabolite transport by the chloroplast outer envelope channel OEP21” (Nature Structural & Molecular Biology, 2023).
“And” between values parts separate entries of the source, which are not always exact repeats. Equal values may be shown once. Read-outs that look alike come from different tables or passages of the source.

Tests used:
Design in all cases: species or system garden pea
OEP21 wt = biological target: T1, OEP21 wt (Pisum sativum, UniProt Q9SM57); assay: Fluorescence polarization (FP) binding of MANT-ATP (or MANT-GMPPNP) to OEP21-WT, also at varied NaCl and MgCl2
T1 construct: made in house
Method: FP assays were performed on a spectrofluorometer FP-8300 (Jasco) equipped with a water bath cooling system MCM-100 (Jasco). […] A buffer containing no EDTA was used when MgCl2 was present. […] KD values were derived by fitting the data to a one-site binding model. […] All FP experiments were performed as triplicates.

[1] = biological target: T2, OEP21 variants (single point mutations, ΔL5) (Pisum sativum, UniProt Q9SM57, K104A); assay: Fluorescence polarization binding of MANT-ATP to OEP21 variants; conditions: OEP21 variant K104A; for Kd: unit inferred;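 for all read-outs here: KD obtained by fitting fluorescence polarization data to a one-site binding model, each experiment run in triplicate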
T2 construct: made in house; host or cells: Escherichia coli BL21(DE3) (described for OEP21)

[2] = biological target: T3, OEP21 variants (single point mutations, ΔL5) (Pisum sativum, UniProt Q9SM57, K19A); assay: as above; conditions: OEP21 variant K19A; for Kd: unit inferred
T3 construct: made in house; host or cells: Escherichia coli BL21(DE3) (described for OEP21)

[3] = biological target: T4, OEP21 variants (single point mutations, ΔL5) (Pisum sativum, UniProt Q9SM57, N164R/R66A); assay: as above; conditions: OEP21 variant R66A/N164R; for Kd: unit inferred
T4 construct: made in house; host or cells: Escherichia coli BL21(DE3) (described for OEP21)

[4] = biological target: T5, OEP21 variants (single point mutations, ΔL5) (Pisum sativum, UniProt Q9SM57, R66W); assay: as above; conditions: OEP21 variant R66W; for Kd: unit inferred
T5 construct: made in house; host or cells: Escherichia coli BL21(DE3) (described for OEP21)

[5] = individual determinations, read-out: KD1-KD3

T5 sequence (Q9SM57 whole entry L5del/R66W): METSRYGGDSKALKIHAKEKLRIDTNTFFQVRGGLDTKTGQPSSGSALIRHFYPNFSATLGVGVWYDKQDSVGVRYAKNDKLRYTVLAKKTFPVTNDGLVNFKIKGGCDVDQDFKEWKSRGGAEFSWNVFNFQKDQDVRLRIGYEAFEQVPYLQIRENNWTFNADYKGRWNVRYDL
T3 sequence (Q9SM57 whole entry L5del/K19A): as the sequence (Q9SM57 whole entry L5del/R66W) above, with K18A, W65R counted along it
T1 sequence (Q9SM57 whole entry): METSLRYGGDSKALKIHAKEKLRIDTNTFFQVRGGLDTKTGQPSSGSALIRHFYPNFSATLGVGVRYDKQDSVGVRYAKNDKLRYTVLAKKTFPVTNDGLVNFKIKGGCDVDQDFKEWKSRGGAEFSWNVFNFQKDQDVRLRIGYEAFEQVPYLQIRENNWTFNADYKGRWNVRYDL
T4 sequence (Q9SM57 whole entry L5del/R66A/N164R): as the sequence (Q9SM57 whole entry L5del/R66W) above, with W65A, N163R counted along it
T2 sequence (Q9SM57 whole entry L5del/K104A): as the sequence (Q9SM57 whole entry L5del/R66W) above, with W65R, K103A counted along it

2′-(or-3′)-O-(N-methylanthraniloyl) adenosine 5′-triphosphate [Mant-ATP]
Kd (OEP21 wt; MgCl2 0 mM, individual determinations, read-out: KD1-KD3): 184 nM and 169 nM and 193 nM | Kd (OEP21 wt; MgCl2 0 mM, read-out: mean KD): 182 nM | rel KD1-KD3 (OEP21 wt; MgCl2 0 mM, relative to mean KD at 0 mM MgCl2): 1.011 and 0.9286 and 1.06 | Kd (OEP21 wt; MgCl2 1 mM, individual determinations, read-out: KD1-KD3): 442 nM and 659 nM and 1020 nM | Kd (OEP21 wt; MgCl2 1 mM, read-out: mean KD): 706 nM | Kd (OEP21 wt; MgCl2 10 mM, individual determinations, read-out: KD1-KD3): 1170 nM and 2680 nM and 2400 nM | Kd (OEP21 wt; MgCl2 10 mM, read-out: mean KD): 2080 nM | Kd (OEP21 wt; MgCl2 50 mM, individual determinations, read-out: KD1-KD3): 6430 nM and 8880 nM and 8630 nM | Kd (OEP21 wt; MgCl2 50 mM, read-out: mean KD): 7980 nM | rel KD1-KD3 (OEP21 wt; MgCl2 50 mM, relative to mean KD at 0 mM MgCl2): 35.3077 and 48.8077 and 47.4286 | Kd (OEP21 wt; NaCl 0 M, individual determinations, nM printed only in the MgCl2 head (r11) of this sheet, read-out: KD1-KD3): 184 nM and 169 nM and 193 nM | Kd (OEP21 wt; NaCl 0 M, read-out: mean KD): 182 nM | rel KD1-KD3 (OEP21 wt; NaCl 0 M, relative to mean KD at 0 M NaCl): 1.011 and 0.9286 and 1.06 | Kd (OEP21 wt; NaCl 0.5 M, individual determinations, nM, read-out: KD1-KD3): 241 nM and 192 nM and 264 nM | Kd (OEP21 wt; NaCl 0.5 M, read-out: mean KD): 232 nM | rel KD1-KD3 (OEP21 wt; NaCl 0.5 M, relative to mean KD at 0 M NaCl): 1.324 and 1.055 and 1.451 | Kd (OEP21 wt; NaCl 1 M, individual determinations, nM, read-out: KD1-KD3): 2600 nM and 2460 nM and 3130 nM | Kd (OEP21 wt; NaCl 1 M, read-out: mean KD): 2730 nM | rel KD1-KD3 (OEP21 wt; NaCl 1 M, relative to mean KD at 0 M NaCl): 14.2912 and 13.5385 and 17.1923 | Kd (OEP21 wt; NaCl 2 M, individual determinations, nM, read-out: KD1-KD3): 18.4 µM and 21.4 µM (2×) | Kd (OEP21 wt; NaCl 2 M, read-out: mean KD): 20400 nM | rel KD1-KD3 (OEP21 wt; NaCl 2 M, relative to mean KD at 0 M NaCl): 101.319 and 117.56 and 117.418 | Kd (OEP21 wt; OEP21 wt, individual determinations, unit inferred, read-out: KD1-KD3): 184 nM and 169 nM and 193 nM | rel KD1-KD3 (OEP21 wt; OEP21 wt, relative to mean KD of wt): 1.011 and 0.9286 and 1.06 | Kd (OEP21 wt; OEP21 wt, unit inferred, read-out: mean KD): 182 nM | Kd [1, 5]: 209 nM and 297 nM and 203 nM | rel KD1-KD3 ([1]; relative to mean KD of wt): 1.148 and 1.632 and 1.115 | Kd ([1]; read-out: mean KD): 236 nM | Kd [2, 5]: 221 nM and 259 nM and 267 nM | rel KD1-KD3 ([2]; relative to mean KD of wt): 1.214 and 1.423 and 1.467 | Kd ([2]; read-out: mean KD): 249 nM | Kd [3, 5]: 172 nM and 184 nM and 211 nM | rel KD1-KD3 ([3]; relative to mean KD of wt): 1.011 and 1.159 | Kd ([3]; read-out: mean KD): 189 nM | Kd [4, 5]: 275 nM and 175 nM and 227 nM | rel KD1-KD3 ([4]; relative to mean KD of wt): 1.511 and 1.247 | Kd ([4]; read-out: mean KD): 226 nM
